≈ marks a conversion by molar mass, not a printed value. Calls of active or inactive are those of the source. No cut-off for these calls is given here.
Legend:
[1] = system: Escherichia coli; assay: Antimicrobial activity against Escherichia coli ATCC 25922 after 16 hrs; format: functional; conditions: ATCC 25922, 16 h
[2] = system: Enterococcus faecalis; assay: Antimicrobial activity against vancomycin resistant Enterococcus faecalis ATCC 700802 after 16 hrs; format: functional; conditions: ATCC 700802, 16 h
[3] = system: Staphylococcus aureus; assay: Antimicrobial activity against methicillin resistant Staphylococcus aureus ATCC 33591 after 16 hrs; format: functional; conditions: ATCC 33591, 16 h
[4] = system: Pseudomonas aeruginosa; assay: Antimicrobial activity against Pseudomonas aeruginosa ATCC 27853 after 16 hrs; format: functional; conditions: ATCC 27853, 16 h
[5] = system: Klebsiella pneumoniae; assay: Antimicrobial activity against Klebsiella pneumoniae ATCC 13383 after 16 hrs; format: functional; conditions: ATCC 13383, 16 h
[6] = system: Staphylococcus epidermidis; assay: Antimicrobial activity against methicillin resistant Staphylococcus epidermidis RP62A after 16 hrs; format: functional
[7] = system: Staphylococcus aureus; assay: Antibacterial activity against methicillin resistance Staphylococcus aureus ATCC 33591 infected in Wistar rat assessed as reduction in bacterial load in bronchoalveolar lavage of lungs at 10 mg/kg, iv treated 24 hrs post infection measured after 3 days relative to control; format: functional; design: scale not given: the % may be the effect or the level left
[8] = system: Staphylococcus aureus; assay: Antibacterial activity against methicillin resistant Staphylococcus aureus ATCC 33591 infected in Wistar rat assessed as reduction in lung inflammation at 10 mg/kg, iv treated 24 hrs post infection measured after 3 days by hematoxylin/ eosin staining based microscopic analysis; format: functional, organism-based
[9] = system: Staphylococcus aureus; assay: Antibacterial activity against methicillin resistant Staphylococcus aureus ATCC 33591 infected in Wistar rat assessed as reduction in lung inflammation at 10 mg/kg, iv treated 24 hrs post infection measured after 5 days by hematoxylin/ eosin staining based microscopic analysis; format: functional, organism-based
[10] = system: Staphylococcus aureus; assay: Antibacterial activity against methicillin resistance Staphylococcus aureus ATCC 33591 infected in Wistar rat assessed as reduction in bacterial load in bronchoalveolar lavage of lungs at 10 mg/kg, iv treated 24 hrs post infection measured after 5 days relative to control; format: functional; design: scale not given: the % may be the effect or the level left
[11] = Selectivity index, ratio of HC50 for mouse RBC to MIC for methicillin resistance Staphylococcus aureus ATCC 33591
[12] = Retention time of compound by HPLC analysis
[13] = system: Staphylococcus aureus; assay: Bactericidal activity against methicillin resistance Staphylococcus aureus ATCC 33591 at 25 ug/ml after 10 mins by time kill analysis; format: functional
[14] = system: Staphylococcus aureus; assay: Bactericidal activity against methicillin resistance Staphylococcus aureus ATCC 33591 at 2 ug/ml after 60 mins by time kill analysis; format: functional
[15] = system: Escherichia coli; assay: Bactericidal activity against Escherichia coli ATCC 25922 at 4 ug/ml after 60 mins by time kill analysis; format: functional
[16] = system: Staphylococcus aureus; assay: Antibacterial activity against methicillin resistance Staphylococcus aureus ATCC 33591 after 14 serial passage at 0.5 times MIC after 16 hrs; format: functional
[17] = system: Escherichia coli; assay: Induction of membrane disruption in Escherichia coli ATCC 25922 at 5 ug/ml after 2 hrs by propidium iodide/4', 6'-diamidino-2-phenylindole dihydrochloride dye based fluorescence microscopy; format: functional
[18] = system: Staphylococcus aureus; assay: Induction of membrane disruption in methicillin resistance Staphylococcus aureus ATCC 33591 at 5 ug/ml after 2 hrs by propidium iodide/4', 6'-diamidino-2-phenylindole dihydrochloride dye based fluorescence microscopy; format: functional
[19] = system: HCT-116; assay: Cytotoxicity against human HCT116 cells; format: cell-based
[20] = system: Escherichia coli; assay: Bactericidal activity against Escherichia coli ATCC 25922 at 25 to 50 ug/ml after 30 mins by time kill analysis; format: functional

| Structure (SMILES) | MIC [1] [µg/mL] | MIC [2] [µg/mL] | MIC [3] [µg/mL] | MIC [4] [µg/mL] | MIC [5] [µg/mL] | MIC [6] [µg/mL] | Retention time [12] [min] | also measured |
| --- | --- | --- | --- | --- | --- | --- | --- | --- |
| CCCCCCCCCCCCCCCC(=O)N[C@@H](CCCCN)CN1CC(=O)N(C23CC4CC(CC(C4)C2)C3)C1=O | > 50 | > 50 | > 50 | > 50 | > 50 | > 50 | – | – |
| CN[C@H](CC(C)C)C(=O)N[C@H]1C(=O)N[C@@H](CC(N)=O)C(=O)N[C@H]2C(=O)N[C@H]3C(=O)N[C@H](C(=O)N[C@H](C(=O)O)c4cc(O)cc(O)c4-c4cc3ccc4O)[C@H](O)c3ccc(c(Cl)c3)Oc3cc2cc(c3O[C@@H]2O[C@H](CO)[C@@H](O)[C@H](O)[C@H]2O[C@H]2C[C@](C)(N)[C@H](O)[C@H](C)O2)Oc2ccc(cc2Cl)[C@H]1O [VANCOMYCIN] | – | – | – | – | – | – | – | Activity [7]: 30%; Activity [8]: Active; Activity [9]: Active; Activity [10]: 45% |
| O=C1CN(/N=C/c2ccc([N+](=O)[O-])o2)C(=O)N1 [NITROFURANTOIN] | 6.25 (≈ 26.2 µM) | 12.5 (≈ 52.5 µM) | 12.5 (≈ 52.5 µM) | > 50 | 25 (≈ 105 µM) | 6.25 (≈ 26.2 µM) | – | – |
| CCCCCCCCCCCCCCCC(=O)N[C@@H](CCCCN)CN1CC(=O)N(c2cccc(Cl)c2)C1=O | > 50 | 12.5 (≈ 22.2 µM) | 12.5 (≈ 22.2 µM) | > 50 | > 50 | 12.5 (≈ 22.2 µM) | – | – |
| CCCCCCCCCC(=O)N[C@@H](CCCCN)CN1CC(=O)N(C23CC4CC(CC(C4)C2)C3)C1=O | 6.25 (≈ 12.4 µM) | 12.5 (≈ 24.9 µM) | 6.25 (≈ 12.4 µM) | 12.5 (≈ 24.9 µM) | 6.25 (≈ 12.4 µM) | 6.25 (≈ 12.4 µM) | – | Selectivity Index [11]: 20 |
| CCCCCCCCCC(=O)N[C@@H](CCCCN)CN1CC(=O)N(CC)C1=O | > 50 | > 50 | > 50 | > 50 | > 50 | > 50 | < 26 | – |
| CCCCCCCCCCCCCC(=O)N[C@@H](CCCCN)CN1CC(=O)N(CCCC)C1=O | 6.25 (≈ 13 µM) | 6.25 (≈ 13 µM) | 6.25 (≈ 13 µM) | > 50 | 12.5 (≈ 26 µM) | 6.25 (≈ 13 µM) | – | – |
| CCCCCCCCCCCCCCCC(=O)N[C@@H](CCCCN)CN1CC(=O)N(CCCC)C1=O | > 50 | 6.25 (≈ 12.3 µM) | 6.25 (≈ 12.3 µM) | > 50 | > 50 | 6.25 (≈ 12.3 µM) | – | – |
| CCCCCCCCCCCC(=O)N[C@@H](CCCCN)CN1CC(=O)N(c2cccc(Cl)c2)C1=O | 1 (≈ 1.97 µM) | 0.5 (≈ 0.986 µM) | 0.5 (≈ 0.986 µM) | 1 (≈ 1.97 µM) | 0.78 (≈ 1.54 µM) | 0.5 (≈ 0.986 µM) | 28.4 | Activity [7]: 70%; Activity [13]: Active; Activity [14]: Active; Activity [15]: Active; Selectivity Index [11]: 190; Activity [8]: Active; Activity [16]: Active; Activity [9]: Active; Activity [17]: Active; Activity [10]: 96%; Activity [18]: Active; IC50 [19]: 100 µg/mL (≈ 197 µM); Activity [20]: Active |
| CCCCCCCCCCCCCC(=O)N[C@@H](CCCCN)CN1CC(=O)N(c2ccc(OC)cc2)C1=O | 6.25 (≈ 11.8 µM) | 6.25 (≈ 11.8 µM) | 6.25 (≈ 11.8 µM) | > 50 | 25 (≈ 47.1 µM) | 6.25 (≈ 11.8 µM) | – | – |
| CCCCCCCCCC(=O)N[C@@H](CCCCN)CN1CC(=O)N(CCCC)C1=O | > 50 | > 50 | > 50 | > 50 | > 50 | > 50 | < 26 | – |
| CCCCCCCCCCCCCCCC(=O)N[C@@H](CCCCN)CN1CC(=O)N(C2CCCCC2)C1=O | > 50 | 25 (≈ 46.7 µM) | 3.12 (≈ 5.83 µM) | > 50 | > 50 | 25 (≈ 46.7 µM) | – | – |
| CCCCCCCCCC(=O)N[C@@H](CCCCN)CN1CC(=O)N(c2ccc(OC)cc2)C1=O | > 50 | > 50 | > 50 | > 50 | > 50 | > 50 | < 26 | – |
| CCCCCCCCCC(=O)N[C@@H](CCCCN)CN1CC(=O)N(C2CCCCC2)C1=O | 12.5 (≈ 27.7 µM) | > 50 | 25 (≈ 55.5 µM) | > 50 | 25 (≈ 55.5 µM) | > 50 | < 26 | – |
| CCCCCCCCCCCCCC(=O)N[C@@H](CCCCN)CN1CC(=O)N(C2CCCCC2)C1=O | 12.5 (≈ 24.7 µM) | 6.25 (≈ 12.3 µM) | 3.12 (≈ 6.16 µM) | > 50 | 6.25 (≈ 12.3 µM) | 6.25 (≈ 12.3 µM) | – | – |
| CCCCCCCCCCCC(=O)N[C@@H](CCCCN)CN1CC(=O)N(C2CCCCC2)C1=O | 6.25 (≈ 13.1 µM) | 12.5 (≈ 26.1 µM) | 6.25 (≈ 13.1 µM) | 12.5 (≈ 26.1 µM) | 6.25 (≈ 13.1 µM) | 6.25 (≈ 13.1 µM) | – | Selectivity Index [11]: 16 |
| CCCCCCCCCC(=O)N[C@@H](CCCCN)CN1CC(=O)N(c2cccc(Cl)c2)C1=O | 6.25 (≈ 13 µM) | 12.5 (≈ 26.1 µM) | 6.25 (≈ 13 µM) | 6.25 (≈ 13 µM) | 6.25 (≈ 13 µM) | 6.25 (≈ 13 µM) | – | Selectivity Index [11]: 16 |
| CCCCCCCCCCCCCCCC(=O)N[C@@H](CCCCN)CN1CC(=O)N(c2ccc(OC)cc2)C1=O | > 50 | 6.25 (≈ 11.2 µM) | 3.12 (≈ 5.58 µM) | > 50 | > 50 | 6.25 (≈ 11.2 µM) | – | – |
| CCCCCCCCCCCCCC(=O)N[C@@H](CCCCN)CN1CC(=O)N(CC)C1=O | 3.12 (≈ 6.89 µM) | 6.25 (≈ 13.8 µM) | 6.25 (≈ 13.8 µM) | 12.5 (≈ 27.6 µM) | 6.25 (≈ 13.8 µM) | 6.25 (≈ 13.8 µM) | – | Selectivity Index [11]: 14.4 |
| CCCCCCCCCCCC(=O)N[C@@H](Cc1ccccc1)CN1CC(=O)N(c2cccc(Cl)c2)C1=O | > 50 | > 50 | > 50 | > 50 | > 50 | > 50 | < 26 | – |
| CCCCCCCCCCCCCC(=O)N[C@@H](CCCCN)CN1CC(=O)N(C23CC4CC(CC(C4)C2)C3)C1=O | > 50 | 6.25 (≈ 11.2 µM) | – | > 50 | > 50 | 3.15 (≈ 5.64 µM) | – | – |
| CCCCCCCCCCCC(=O)N[C@@H](CCCCN)CN1CC(=O)N(c2ccc(OC)cc2)C1=O | 12.5 (≈ 24.9 µM) | 25 (≈ 49.7 µM) | 25 (≈ 49.7 µM) | 12.5 (≈ 24.9 µM) | 12.5 (≈ 24.9 µM) | 25 (≈ 49.7 µM) | < 26 | Selectivity Index [11]: 8 |
| CCCCCCCCCCCC(=O)N[C@@H](CCCCN)CN1CC(=O)N(CC)C1=O | 12.5 (≈ 29.4 µM) | > 50 | > 50 | > 50 | > 50 | > 50 | < 26 | – |
| CCCCCCCCCCCC(=O)N[C@@H](CCCCN)CN1CC(=O)N(CCCC)C1=O | 6.25 (≈ 13.8 µM) | 25 (≈ 55.2 µM) | 12.5 (≈ 27.6 µM) | 25 (≈ 55.2 µM) | 12.5 (≈ 27.6 µM) | 25 (≈ 55.2 µM) | < 26 | Selectivity Index [11]: 6.4 |
| CCCCCCCCCCCCCC(=O)N[C@@H](CCCCN)CN1CC(=O)N(c2cccc(Cl)c2)C1=O | > 50 | 12.5 (≈ 23.4 µM) | 12.5 (≈ 23.4 µM) | > 50 | > 50 | 12.5 (≈ 23.4 µM) | – | – |
| CCCCCCCCCCCCCCCC(=O)N[C@@H](CCCCN)CN1CC(=O)N(CC)C1=O | 3.12 (≈ 6.49 µM) | 3.12 (≈ 6.49 µM) | 3.12 (≈ 6.49 µM) | > 50 | 12.5 (≈ 26 µM) | 3.12 (≈ 6.49 µM) | < 26 | – |
| CCCCCCCCCCCC(=O)N[C@@H](CCCCN)CN1CC(=O)N(C23CC4CC(CC(C4)C2)C3)C1=O | 12.5 (≈ 23.5 µM) | 6.25 (≈ 11.8 µM) | 6.25 (≈ 11.8 µM) | > 50 | > 50 | 6.25 (≈ 11.8 µM) | – | – |

Source: ChEMBL document CHEMBL4017541, “Membrane-Active Hydantoin Derivatives as Antibiotic Agents” (J Med Chem, 2017)
